# Data published in US7858644B2, “EP4 receptor antagonists” (Asterand UK Limited, priority 2003, dated 2010).
# How the values were obtained:
# [1] = target: T1, human EP3 receptor (Homo sapiens, UniProt P43115); experiment: Binding ability to human EP3 receptor ([3H]PGE2 displacement); details: membranes from cells stably transfected with human EP receptor cDNA; [3H]PGE2 2.5 nM; Cheng-Prusoff from IC50; read-out: pKi EP3 (converted)
# T1 construct: expressed in transfected cells
# T1 sequence (P43115 1-390): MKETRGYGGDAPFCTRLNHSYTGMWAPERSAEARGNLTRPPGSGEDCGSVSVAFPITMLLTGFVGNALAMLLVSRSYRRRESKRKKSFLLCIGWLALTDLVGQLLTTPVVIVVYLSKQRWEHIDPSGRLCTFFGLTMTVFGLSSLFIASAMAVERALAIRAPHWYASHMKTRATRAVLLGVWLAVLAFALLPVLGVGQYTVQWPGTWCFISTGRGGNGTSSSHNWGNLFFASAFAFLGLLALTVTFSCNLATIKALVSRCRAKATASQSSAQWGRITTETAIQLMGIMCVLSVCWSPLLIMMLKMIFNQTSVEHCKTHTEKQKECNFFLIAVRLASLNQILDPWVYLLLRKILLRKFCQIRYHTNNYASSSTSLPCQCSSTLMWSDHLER
# Procedure: (§1) Membranes were prepared from cells stably transfected with human EP receptor cDNA. In brief, cells were cultured to confluency, scraped from culture flasks, and centrifuged (800 g, 8 minutes, 4° C.). Cells were twice washed in ice cold homogenisation buffer containing 10 mMTris-HCl, 1 mM EDTA. 2Na, 250 mM sucrose, 1 mM PMSF, 0.3 mM indomethacin, pH 7.4, homogenised and re-centrifuged as before. The supernatant was stored on ice and pellets re-homogenised and re-spun. Supernatants were pooled and centrifuged at 40000 g, 10 minutes, 4° C. Resultant membrane pellets were stored at −80° C. until use.
# (§2) For assay, membranes expressing human EP4, EP3, EP2 or EP1 receptors were incubated in Millipore (MHVBN45) plates containing assay buffer, radiolabelled [^3H]PGE2 and 0.1 to 10 000 nM concentrations of compounds. Incubations were performed at suitable temperatures and for suitable times to allow equilibrium to be reached. Non-specific binding was determined in the presence of 10 uM PGE2. Bound and free radiolabel was separated by vacuum manifold filtration using appropriate wash buffers, and bound radiolabel was determined by scintillation counting. Constituents of each of the buffers are included in table 1 below.
# (§3) This approach follows that set out in Kenakin, T. P., Pharmacologic analysis of drug receptor interaction. Raven Press, New York, 2nd edition.
# [2] = target: T2, human EP2 receptor (Homo sapiens, UniProt P43116); experiment: Binding ability to human EP2 receptor ([3H]PGE2 displacement); details: read-out: pKi EP2 (converted)
# T2 construct: expressed in transfected cells
# T2 sequence (P43116 whole entry): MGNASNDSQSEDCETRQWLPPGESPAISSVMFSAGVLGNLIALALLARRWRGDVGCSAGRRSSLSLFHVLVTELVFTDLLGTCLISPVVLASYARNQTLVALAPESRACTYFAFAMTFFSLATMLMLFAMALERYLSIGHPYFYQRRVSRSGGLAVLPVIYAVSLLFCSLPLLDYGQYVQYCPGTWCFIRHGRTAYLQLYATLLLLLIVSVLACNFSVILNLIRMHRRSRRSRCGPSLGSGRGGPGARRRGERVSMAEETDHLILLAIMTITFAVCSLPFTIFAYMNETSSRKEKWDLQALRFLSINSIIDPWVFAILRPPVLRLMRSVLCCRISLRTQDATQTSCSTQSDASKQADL
# Procedure: as §1, §2, §3
SMILES,Ki [1],Ki [2]
"CC(=O)c1ccc(-c2ccc(OCc3cc(C(=O)O)oc3C)cc2)cc1 [Compound 21, 4-(4′-Acetyl-biphenyl-4-yloxymethyl)-5-methyl-furan-2-carboxylic acid]",> 10 µM,> 10 µM
"Cc1oc(C(=O)O)cc1COc1ccc(-c2ccc(C#N)cc2)cc1 [Compound 57, 4-(4′-Cyano-biphenyl-4-yloxymethyl)-5-methyl-furan-2-carboxylic acid]",> 10 µM,> 10 µM
"COc1ccc(-c2ccc(OCc3cc(C(=O)NS(=O)(=O)c4ccccc4C)oc3C)cc2)nc1 [Compound 134, N-{4-[4-(5-Methoxy-pyridin-2-yl)-phenoxymethyl]-5-methyl-furan-2-carbonyl}-2-methyl-benzenesulphonamide]",> 10 µM,> 10 µM
"COc1ccc(-c2ccc(OCc3cc(C(=O)NS(C)(=O)=O)oc3C)cc2)cc1 [Compound 7, N-[4-(4′-Methoxy-biphenyl-4-yloxymethyl)-5-methyl-furan-2-carbonyl]-methanesulfonamide]",> 10 µM,> 10 µM
"CCCS(=O)(=O)NC(=O)c1cc(COc2ccc(-c3ccc(OC)cc3)cc2)c(C)o1 [Compound 8, Propane-1-sulfonic acid [4-(4′-methoxy-biphenyl-4-yloxymethyl)-5-methyl-furan-2-carbonyl]-amide]",> 10 µM,> 10 µM
"COc1ccc(-c2ccc(OCc3cc(C(=O)NS(=O)(=O)c4ccccc4)oc3C)cc2)nc1 [Compound 132, N-{4-[4-(5-Methoxy-pyridin-2-yl)-phenoxymethyl]-5-methyl-furan-2-carbonyl}-benzenesulphonamide]",> 10 µM,> 10 µM
"COc1ccc(-c2ccc(OCc3cc(C(=O)NS(=O)(=O)c4ccc(O)cc4)oc3C)cc2)cc1 [Compound 13, 4-Hydroxy-N-[4-(4′-methoxy-biphenyl-4-yloxymethyl)-5-methyl-furan-2-carbonyl]-benzenesulfonamide]",> 10 µM,> 10 µM
"Cc1oc(C(=O)O)cc1COc1ccc(-c2ccc(OC(F)(F)F)cc2)cc1 [Compound 114, 5-Methyl-4-(4′-trifluoromethoxy-biphenyl-4-yloxymethyl)-furan-2-carboxylic acid]",> 10 µM,> 10 µM
"COc1ccccc1-c1ccc(OCc2cc(C(=O)O)oc2C)cc1 [Compound 126, 4-(2′-Methoxy-biphenyl-4-yloxymethyl)-5-methyl-furan-2-carboxylic acid]",> 10 µM,> 10 µM
"Cc1oc(C(=O)O)cc1COc1ccc(-c2ccc(Cl)cc2)cc1 [Compound 27, 4-(4′-Chloro-biphenyl-4-yloxymethyl)-5-methyl-furan-2-carboxylic acid]",> 10 µM,> 3.16 µM
"COc1ccc(-c2ccc(OCc3cc(C(=O)O)oc3C)cc2)cc1OC [Compound 96, 4-(3′,4′-Dimethoxy-biphenyl-4-yloxymethyl)-5-methyl-furan-2-carboxylic acid]",> 10 µM,> 10 µM
"Cc1oc(C(=O)NS(=O)(=O)c2ccccc2)cc1COc1ccc(-c2ccc(OC(F)F)cc2)cc1 [Compound 130, N-[4-(4′-Difluoromethoxy-biphenyl-4-yloxymethyl)-5-methyl-furan-2-carbonyl]-benzenesulphonamide]",> 10 µM,> 3.16 µM
"Cc1oc(C(=O)O)cc1COc1ccc(-c2ccc(CO)cc2)cc1 [Compound 110, 4-(4′-Hydroxymethyl-biphenyl-4-yloxymethyl)-5-methyl-furan-2-carboxylic acid]",> 10 µM,> 10 µM
"COc1ccc(-c2ccc(OCc3cc(C(=O)O)oc3C)cc2)nc1 [Compound 53, 4-[4-(5-Methoxy-pyridin-2-yl)-phenoxymethyl]-5-methyl-furan-2-carboxylic acid]",> 10 µM,> 10 µM
"Cc1oc(CCC(=O)O)cc1COc1ccc(-c2ccccc2)cc1 [Compound 37, 3-[4-(Biphenyl-4-yloxymethyl)-5-methyl-furan-2-yl]-propionic acid]",> 10 µM,> 10 µM
"CC(=O)c1ccc(-c2ccc(OCc3cc(C(=O)NS(=O)(=O)c4ccccc4)oc3C)cc2)cc1 [Compound 22, N-[4-(4′-Acetyl-biphenyl-4-yloxymethyl)-5-methyl-furan-2-carbonyl]-benzenesulfonamide]",> 10 µM,> 10 µM
"Cc1oc(C(=O)O)cc1CCOc1ccc(-c2ccccc2)cc1 [Compound 72, 4-[2-(Biphenyl-4-yloxy)-ethyl]-5-methyl-furan-2-carboxylic acid]",> 10 µM,> 10 µM
"Cc1ccccc1S(=O)(=O)NC(=O)c1cc(CNc2ccc(-c3ccc(OC(F)F)cc3)cc2)c(C)o1 [Compound 173, N-{4-[(4′-Difluoromethoxy-biphenyl-4-ylamino)-methyl]-5-methyl-furan-2-carbonyl}-2-methyl-benzenesulphonamide]",> 10 µM,> 3.16 µM
"Cc1oc(C(=O)NS(=O)(=O)c2ccccc2)cc1CNc1ccc(-c2ccccc2)cc1 [Compound 161, N-[4-(biphenyl-4-ylaminomethyl)-5-methyl-furan-2-carbonyl]-benzenesulphonamide]",> 10 µM,> 10 µM
"COc1ccccc1-c1ccc(OCc2cc(C(=O)NS(=O)(=O)c3ccccc3)oc2C)cc1 [Compound 127, N-[4-(2′-Methoxy-biphenyl-4-yloxymethyl)-5-methyl-furan-2-carbonyl]-benzenesulphonamide]",> 10 µM,> 10 µM
"Cc1oc(C(=O)O)cc1COc1ccc(-c2ccc3c(c2)OCO3)cc1 [Compound 28, 4-(4-Benzo[1,3]dioxol-5-yl-phenoxymethyl)-5-methyl-furan-2-carboxylic acid]",> 10 µM,> 10 µM
"Cc1oc(C(=O)NS(=O)(=O)c2ccccc2)cc1COc1ccc(-c2ccccc2)cc1 [Compound 19, N-[4-(Biphenyl-4-yloxymethyl)-5-methyl-furan-2-carbonyl]-benzenesulfonamide]",> 10 µM,> 10 µM
"COc1ccc(-c2ccc(OCc3cc(C(=O)NS(=O)(=O)Cc4ccccc4)oc3C)cc2)cc1 [Compound 6, N-[4-(4′-Methoxy-biphenyl-4-yloxymethyl)-5-methyl-furan-2-carbonyl]-C-phenyl-methanesulfonamide]",> 10 µM,> 10 µM
"COc1ccc(-c2ccc(OCc3cc(C(=O)O)oc3C)cc2)cc1 [Compound 4, 4-(4′-Methoxy-biphenyl-4-yloxymethyl)-5-methyl-furan-2-carboxylic acid]",> 10 µM,> 10 µM
"CC(C)c1oc(C(=O)O)cc1COc1ccc(-c2ccccc2)cc1 [Compound 85, 4-(Biphenyl-4-yloxymethyl)-5-isopropyl-furan-2-carboxylic acid]",> 10 µM,> 10 µM
"Cc1noc(C)c1S(=O)(=O)NC(=O)c1cc(COc2ccc(-c3ccc(OC(F)F)cc3)cc2)c(C)o1 [Compound 131, 3,5-Dimethyl-isoxazole-4-sulphonic acid [4-(4′-difluoromethoxy-biphenyl-4-yloxymethyl)-5-methyl-furan-2-carbonyl]-amide]",> 10 µM,> 3.16 µM
"COc1ccc(-c2ccc(OCc3cc(C(=O)NS(=O)(=O)c4ccccc4)oc3C)cc2)c(C)c1 [Compound 145, N-[4-(4′-Methoxy-2′-methyl-biphenyl-4-yloxymethyl)-5-methyl-furan-2-carbonyl]-benzenesulphonamide]",> 10 µM,> 10 µM
"COc1ccc(-c2ccc(OCc3cc(C(=O)NS(=O)(=O)CCCN4CCOCC4)oc3C)cc2)cc1 [Compound 59, 3-Morpholin-4-yl-propane-1-sulphonic acid [4-(4′-methoxy-biphenyl-4-yloxymethyl)-5-methyl-furan-2-carbonyl]-amide]",> 10 µM,> 10 µM
"COc1ccc(-c2ccc(OCc3cc(C(=O)NS(=O)(=O)c4c(C)noc4C)oc3C)cc2)cc1 [Compound 9, 3,5-Dimethyl-isoxazole-4-sulfonic acid [4-(4′-methoxy-biphenyl-4-yloxymethyl)-5-methyl-furan-2-carbonyl]-amide]",> 10 µM,> 10 µM
"COc1ccc(-c2ccc(OCc3cc(C(=O)NS(=O)(=O)N(C)C)oc3C)cc2)cc1 [Compound 122, N-[4-(4′-Methoxy-biphenyl-4-yloxymethyl)-5-methyl-furan-2-carbonyl]-dimethylamino-sulphonamide]",> 10 µM,> 10 µM
